Measured values published in PubChem BioAssay (NCI).
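Five concentrations, 48 hours, 96-well plates. GI50: concentration for 50% inhibition of growth. The concentration for full growth arrest is given as TGI.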

The compounds below were run on MDA-MB-468 breast (assay: NCI-60 cell line screen, 48 h).

| Structure (SMILES) | GI50 | TGI |
| --- | --- | --- |
| CCCCCCCCCCCCCC[P+](CCCCCC)(CCCCCC)CCCCCC | 36.6 nM | 175 nM |
| NC(=O)C(Br)CBr (centres undefined) | 1460 nM | 4350 nM |
| CCOC(=O)c1c2c(n3ccc(NC(=O)OC(C)(C)C)cc13)C(=O)c1ncccc1C2=O | 1330 nM | 3820 nM |
| O=c1[nH]cnc2c1nnn2C1OC(CO)C(O)C1O (centres undefined) | 577 nM | 22000 nM |
| O=C(Nc1ncc(Cc2ccccc2)s1)c1ccc2c(c1)OCCCO2 | 413 nM | > 100000 nM |
| CNC(=O)c1c(NC(=O)c2cccc(C(F)(F)F)c2)sc2c1CCC(=O)C2 | 396 nM | 2300 nM |
| COc1ccc(-c2nsc3c2NC(=O)CC3c2ccc3c(c2)OCO3)cc1 (centres undefined) | 612 nM | 25900 nM |
| COc1cc([C@@H]2c3cc4c(cc3C(Br)[C@H]3COC(=O)[C@H]23)OCO4)cc(OC)c1OC (some centres undefined) | 175 nM | 625 nM |
| NS(=O)(=O)c1ccc(C2C3=C(CCCC3=O)OC3=C2C(=O)c2ccccc2C3=O)cc1 (centres undefined) | 231 nM | 671 nM |
| CCCCCCOc1ccc(/C=N/NC(N)=S)cc1 | 6390 nM | 32700 nM |
| Nc1ccccc1NC(=O)CCCCCCC(=O)Nc1ccc2c(c1)/C(=C/c1ccc[nH]1)C(=O)N2 | 1830 nM | > 100000 nM |
| O=CN1N=C(c2ccc(Nc3ccnc4cc(Cl)ccc34)cc2)CC1c1ccccc1 (centres undefined) | 975 nM | 3150 nM |
| C=C1C(=O)O[C@H]2[C@H]1CC/C(CNS(=O)(=O)c1ccc3ccccc3c1)=C\CC[C@@]1(C)O[C@@H]21 | 363 nM | 1620 nM |
| Nc1ccc(N=Nc2ccccc2)c(N)n1 | 16200 nM | 60900 nM |
| N#Cc1c2ccccc2c2n1-c1ccccc1OC(c1ccccc1)C2=O (centres undefined) | 3260 nM | 13100 nM |
| Nc1nc2c(c3ncccc13)C(c1ccc(Cl)c(Cl)c1)Cc1ncccc1-2 (centres undefined) | 3250 nM | 11200 nM |
| CN(C)c1ccc(C(=O)c2ccc(N(C)C)c(N)c2)cc1N | 781 nM | 4720 nM |
| CCc1ccc(-c2ccc(=O)n(-c3ccc(S(N)(=O)=O)cc3)n2)cc1 | 3180 nM | > 100000 nM |
| Cn1c(=O)c(Oc2cccc(F)c2)cc2cnc(NC3CCOCC3)nc21 | > 25000 nM | > 25000 nM |
| COc1ccc(C2=CC(c3cc(OC)c(OC)c(OC)c3)NC(=O)N2)cc1OC (centres undefined) | 3210 nM | 15100 nM |
| C[C@@H]1COCCN1c1nc(-c2cnc(N)cc2C(F)F)nc(N2[C@H](C)COC[C@@H]2C)n1 | 185 nM | 1620 nM |
| Cc1ccccc1S(=O)(=O)N1[C@H](c2ccc(Cl)cc2)C(C(=O)N[C@@H](Cc2ccccc2)C(N)=O)=C[C@@H]1C(C)(C)C | 4130 nM | 12500 nM |
| N#Cc1cccc(C(=O)c2cnn(-c3ccc(F)cc3)c2N)c1 | > 25000 nM | > 25000 nM |
| CCOCC(=O)N[C@H]1CCc2cc(OC)c(OC)c(OC)c2-c2ccc(SC)c(=O)cc21 | < 10 nM | > 100000 nM |
| O=C1c2ccccc2-c2nccc3cc(Cl)nc1c23 | 230 nM | 602 nM |
| COc1cc2c(cc1OCCCOC1=C=C=C(c3ccc4c(c3)c3cc(-c5ccc(OCCCOc6cc7c(cc6OC)C(=O)N6CCC[C@H]6C=N7)cc5)ccc3n4S(=O)(=O)c3ccc(C)cc3)C=C1)N=C[C@@H]1CCCN1C2=O | 1040 nM | 3040 nM |

| Structure (SMILES) | GI50 | TGI |
| --- | --- | --- |
| COc1ccc(Nc2ncccc2/C=C/C(=O)c2cc(OC)c(OC)c(OC)c2)cc1 | 1150 nM | 2440 nM |
| CCN(CC)CCOc1ccc(Nc2ncc3cc(-c4c(Cl)cccc4Cl)c(=O)n(CCOC)c3n2)cc1 | 1260 nM | 3990 nM |
| c1cc(C2CCCCC2)ccc1OCCCCCCN1CCNCC1 | 1910 nM | 3670 nM |
| Fc1ccc(C2CC(c3cccc(Nc4ccncc4)c3)=NN2c2cc(Cl)cc(Cl)c2)cc1 (centres undefined) | 1760 nM | 3720 nM |
| Nc1c(C(=O)c2cccc(-c3ccc[n+]([O-])c3)c2)cnn1-c1ccc(F)cc1F | > 25000 nM | > 25000 nM |
| Cc1[nH]c(C(=O)Nc2ccc(C(=O)N3CCNCC3)cc2OC(C)C)c(Cl)c1Cl | 1670 nM | 3180 nM |
| CCCCCCCCCCCCCCCC(=O)OCC1OC(n2cnc3c(=S)nc(N)[nH]c32)C(OC(=O)CCCCCCCCCCCCCCC)C1OC(=O)CCCCCCCCCCCCCCC (centres undefined) | 1390 nM | > 50000 nM |
| COc1cc(C(=O)/C=C/c2c(-c3ccc(F)cc3)nc3sc(C)cn23)cc(OC)c1OC | 2380 nM | > 100000 nM |
| CC1=C(C(=O)Nc2ccc3[nH]ncc3c2)C(c2ccc(F)cc2)NC(=O)N1 (centres undefined) | > 25000 nM | > 25000 nM |
| COc1ccc(C(O)c2cc3c(N)c(C(=O)Nc4cccc(Cl)c4C)sc3nc2C)cc1 (centres undefined) | 742 nM | 1480 nM |
| CN(C)C(=S)NN=C(c1ccccn1)c1ccccn1 | < 10 nM | 24000 nM |
| C=C1C(=O)O[C@H]2[C@H]1CC/C(CNC(=O)/C=C/c1cccc(OC)c1)=C\CC[C@@]1(C)O[C@@H]21 | 485 nM | 2130 nM |
| O=S1(=O)N(Cc2ccccc2)[C@@H](Cc2ccccc2)C2O[C@H]2[C@H](Cc2ccccc2)N1Cc1ccccc1 (some centres undefined) | 274 nM | > 7500 nM |
| CCN(CC)c1ccc(N=C2C=C(C(=O)Nc3ccc(S(C)(=O)=O)cc3)C(=O)c3ccccc32)c(C)c1 | > 100000 nM | > 100000 nM |
| COc1ccc(Nc2ccnc(NCCNc3ccnc4cc(Cl)ccc34)n2)cc1 | 997 nM | 3220 nM |
| CNc1nc(C)c(-c2nc(Nc3cccc(S(N)(=O)=O)c3)ncc2F)s1 | 35.4 nM | 116 nM |
| COC(=O)Nc1nc2ccc(Oc3ccc(NC(=O)Nc4cccc(Br)c4)cc3)cc2[nH]1 | 1290 nM | 6280 nM |
| O=C1C2=C(C(=O)c3c(O)cccc31)C(c1ccco1)c1sc(=O)[nH]c1S2 (centres undefined) | 2010 nM | 6590 nM |
| OCc1cccc(-c2ccc3ncc(-c4nc(NC5CC5)ncc4F)n3c2)c1 | 250 nM | 603 nM |
| CCOC(=O)c1cc2c(n1Cc1cc(OC)cc(OC)c1)-c1oncc1CCC2 | 47.4 nM | > 100000 nM |
| Cc1nc2cncc(C#Cc3cncc(C(=O)Nc4ccc(CN5CCN(C)CC5)c(C(F)(F)F)c4)c3)c2nc1C | 949 nM | 7340 nM |
| CC/C=C\C/C=C\C[C@H](O)C/C=C1/C(=O)C=C[C@H]1C/C=C\CCC(=O)OC | 1560 nM | 4740 nM |
| CSc1ccc(-c2cc(-c3ccc(NC(=O)CCCN4CCCC4)cc3)nc(-c3ccc(NC(=O)CCCN4CCCC4)cc3)c2)cc1 | 1560 nM | 3030 nM |
| N#Cc1ccc(/C=N/NC(=O)c2[nH]c3ccc(Br)cc3c2-c2ccccc2)s1 | 292 nM | 10300 nM |
| O=C(CCCCCCNC(=O)C(O)(O)C(F)(F)F)Nc1ncc(-c2ccc(Br)cc2)s1 | 752 nM | 5350 nM |
| COc1cc2c(c(OC)c1OC)-c1ccc(NNC(=S)N(Cc3cccc(C[N+](Cc4cccc(CNC56CC7CC(CC(C7)C5)C6)c4)(Cc4cccc(CNC56CC7CC(CC(C7)C5)C6)c4)Cc4cccc(CN(C(=S)NNc5ccc6c(cc5=O)[C@@H](NC(C)=O)CCc5cc(OC)c(OC)c(OC)c5-6)C56CC7CC(CC(C7)C5)C6)c4)c3)C34CC5CC(CC(C5)C3)C4)c(=O)cc1[C@@H](NC(C)=O)CC2 (some centres undefined) | 657 nM | 1750 nM |
